Measured values published in US20080221107A1, “Therapeutic Agents” (ASTRAZENECA AB, priority 2005, published 2008).

Columns and labels:
hERG = hERG (Homo sapiens, UniProt Q12809); assay: hERG activity (planar-array-based voltage clamp, modified Kiss et al. method); format: cell-based
Experimental: hERG testing was performed using a modified version of the method described by Kiss L, Bennett P B, Uebele V N, Koblan K S, Kane S A, Neagle B, Schroeder K. “High throughput ion-channel pharmacology: planar-array-based voltage clamp.” Assay Drug Dev Technol. 1, 127-35. (2003).

[1] = target: T1, human Melanin concentrating hormone receptor 1 (hMCHr1) (Homo sapiens, UniProt Q99705); assay: MCHr1 receptor radioligand binding (125I-MCH, membranes from CHO-K1 cells); conditions: 125I-MCH displacement, CHO-K1 membranes expressing hMCHr1, 30° C. 60 minutes; read-out: IC50 in human MCHr binding assay
T1 construct: purchased Euroscreen; host or cells: CHO-K1 cells (recombinant expression; membranes)
T1 sequence (Q99705 whole entry): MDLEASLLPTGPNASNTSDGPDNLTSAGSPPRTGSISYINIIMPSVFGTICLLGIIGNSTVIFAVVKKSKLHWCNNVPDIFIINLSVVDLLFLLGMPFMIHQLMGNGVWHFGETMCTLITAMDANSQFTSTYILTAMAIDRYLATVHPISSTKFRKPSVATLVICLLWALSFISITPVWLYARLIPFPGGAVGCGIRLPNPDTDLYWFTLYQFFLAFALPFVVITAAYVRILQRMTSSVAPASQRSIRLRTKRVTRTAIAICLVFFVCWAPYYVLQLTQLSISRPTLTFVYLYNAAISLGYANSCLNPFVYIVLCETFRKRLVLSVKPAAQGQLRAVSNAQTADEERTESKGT
Experimental: Assays were performed in a 96-well plate format in a final reaction volume of 200 μl per well. […] Filters were washed with assay buffer.
Non-specific binding was subtracted from all values determined. […] Binding of compounds at various concentrations was plotted according to the equation

Chain of hERG (Q12809 whole entry): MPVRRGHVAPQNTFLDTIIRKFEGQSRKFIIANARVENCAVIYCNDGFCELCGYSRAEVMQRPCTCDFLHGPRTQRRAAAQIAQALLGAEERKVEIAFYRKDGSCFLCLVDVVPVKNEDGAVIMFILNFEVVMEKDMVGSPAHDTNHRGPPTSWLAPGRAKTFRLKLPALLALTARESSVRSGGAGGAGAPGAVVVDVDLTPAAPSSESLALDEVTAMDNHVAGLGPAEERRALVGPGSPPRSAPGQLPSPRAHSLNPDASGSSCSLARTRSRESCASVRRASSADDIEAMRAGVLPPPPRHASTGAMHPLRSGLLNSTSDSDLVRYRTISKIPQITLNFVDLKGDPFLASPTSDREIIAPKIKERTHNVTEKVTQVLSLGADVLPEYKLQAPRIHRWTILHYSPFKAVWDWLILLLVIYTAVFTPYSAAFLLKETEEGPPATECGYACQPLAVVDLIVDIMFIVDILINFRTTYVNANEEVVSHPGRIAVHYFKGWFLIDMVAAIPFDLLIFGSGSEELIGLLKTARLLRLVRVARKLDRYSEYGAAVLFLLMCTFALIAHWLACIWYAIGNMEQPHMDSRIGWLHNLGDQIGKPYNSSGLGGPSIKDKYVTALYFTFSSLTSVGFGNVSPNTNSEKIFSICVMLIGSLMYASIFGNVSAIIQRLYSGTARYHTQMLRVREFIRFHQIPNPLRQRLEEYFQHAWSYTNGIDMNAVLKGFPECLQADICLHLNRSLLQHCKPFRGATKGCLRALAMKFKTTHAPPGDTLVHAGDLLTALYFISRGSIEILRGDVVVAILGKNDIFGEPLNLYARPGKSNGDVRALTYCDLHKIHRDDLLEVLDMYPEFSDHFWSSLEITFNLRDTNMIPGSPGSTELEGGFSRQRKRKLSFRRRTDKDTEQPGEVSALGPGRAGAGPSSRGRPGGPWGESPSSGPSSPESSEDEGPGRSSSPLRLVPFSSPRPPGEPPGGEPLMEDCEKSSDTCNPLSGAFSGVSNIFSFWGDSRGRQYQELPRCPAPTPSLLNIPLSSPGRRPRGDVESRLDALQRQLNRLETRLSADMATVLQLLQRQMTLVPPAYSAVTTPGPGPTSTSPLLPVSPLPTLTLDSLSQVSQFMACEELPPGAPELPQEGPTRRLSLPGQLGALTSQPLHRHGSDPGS

SMILES: COc1cc(-n2nnc3cc(-c4ccc(Cl)cc4)sc3c2=O)ccc1N1CC[C@@H](O)C1 [Example 1, 6-(4-Chlorophenyl)-3-{4-[(3R)-3-hydroxypyrrolidin-1-yl]-3-methoxyphenyl}thieno[3,2-d][1,2,3]triazin4(3D)-one]
- IC50 (hERG): > 5000 nM
- IC50 [1]: 11 nM
